“Also recorded” adds a separate entry of the source. Where two headings read alike, the source gives them in different places.
Key:
F508del-CFTR [1] = molecular target: T1, F508del-CFTR (Homo sapiens, UniProt P13569, DEL508-508); experiment: Ussing chamber assay, chloride transport in HBE cells; assay type: cell-based; parameters: CF-HBE were isolated from patients homozygous for F508del; endogenous in cells; host or cells: primary CF human bronchial epithelial cells (F508del/F508del-HBE)
Description: Using chamber experiments were performed on polarized airway epithelial cells expressing F508del to further characterize the F508del modulators identified in the optical assays. Non-CF and CF airway epithelia were isolated from bronchial tissue, cultured as previously described (Galietta, L. J. V., Lantero, S., Gazzolo, A., Sacco, O., Romano, L., Rossi, G. A., & Zegarra-Moran, O. (1998) In Vitro Cell. Dev. Biol. 34, 478-481), and plated onto Costar® Snapwell™ filters that were precoated with NIH3T3-conditioned media. After four days the apical media was removed and the cells were grown at an air liquid interface for >14 days prior to use. […] CF-HBE were isolated from patients homozygous for F508del or compound heterozygous for F508del with a different disease causing mutation on the other allele.
HBE grown on Costar® Snapwell™ cell culture inserts were mounted in an Using chamber (Physiologic Instruments, Inc., San Diego, Calif.), and the transepithelial resistance and short-circuit current in the presence of a basolateral to apical Cl^− gradient (ISC) were measured using a voltage-clamp system (Department of Bioengineering, University of Iowa, IA). Briefly, HBE were examined under voltage-clamp recording conditions (Vhold=0 mV) at 37° C. The basolateral solution contained (in mM) 145 NaCl, 0.83 K2HPO4, 3.3 KH2PO4, 1.2 MgCl2, 1.2 CaCl2, 10 Glucose, 10 HEPES (pH adjusted to 7.35 with NaOH) and the apical solution contained (in mM) 145 NaGluconate, 1.2 MgCl2, 1.2 CaCl2), 10 glucose, 10 HEPES (pH adjusted to 7.35 with NaOH).
Typical protocol utilized a basolateral to apical membrane Cl^− concentration gradient. To set up this gradient, normal ringers was used on the basolateral membrane, whereas apical NaCl was replaced by equimolar sodium gluconate (titrated to pH 7.4 with NaOH) to give a large Cl^− concentration gradient across the epithelium. Modulators were added either to the basolateral side […] to assay or to the apical side during the assay. Forskolin (10 μM) was added to the apical side during the assay to stimulate CFTR-mediated Cl^− transport.

F508del-CFTR [2] = molecular target: T1, F508del-CFTR; experiment: F508del-CFTR processing and trafficking in vitro (170 to 180 kDa band); assay type: cell-based; parameters: CF-HBE were isolated from patients homozygous for F508del; endogenous in cells; host or cells: primary CF human bronchial epithelial cells (F508del/F508del-HBE)
Text: Processing and trafficking of F508del-CFTR was directly monitored by the appearance of a 170 to 180 kDa band.

pKa determination = assay type: physicochemical
F508del-CFTR [3] = molecular target: T1, F508del-CFTR; experiment: Membrane potential optical (FLIPR) assay for F508del-CFTR modulators; assay type: cell-based; parameters: expressed in transfected cells
Text: The assay utilizes fluorescent voltage sensing dyes to measure changes in membrane potential using a fluorescent plate reader (e.g., FLIPR III, Molecular Devices, Inc.) as a readout for increase in functional F508del in NIH 3T3 cells. The driving force for the response is the creation of a chloride ion gradient in conjunction with channel activation and concurrent with compound treatment by a single liquid addition step after the cells have previously been loaded with a voltage sensing dye.
To identify modulators of F508del, a fluorescence based HTS assay format was developed. This HTS assay utilizes fluorescent voltage sensing dyes to measure changes in membrane potential on the FLIPR III as a measurement for increase in gating (conductance) of F508del NIH 3T3 cells. The driving force for the response is the creation of a chloride ion gradient in conjunction with channel activation and concurrent with compound treatment by a single liquid addition step after the cells have previously been loaded with a voltage sensing dye.
(in mM) NaCl 160, KCl 4.5, CaCl2) 2, MgCl2 1, HEPES 10, pH 7.4 with NaOH, Glucose 10.
Chloride salts in Bath Solution #1 (above) are substituted with gluconate salts.
NIH3T3 mouse fibroblasts stably expressing F508del are used for optical measurements of membrane potential. The cells are maintained at 37° C. in 5% CO2 and 90% humidity in Dulbecco's modified Eagle's medium supplemented with 2 mM glutamine, 10% fetal bovine serum, 1×NEAA, β-ME, 1× pen/strep, and 25 mM HEPES in 175 cm^2 culture flasks. For all optical assays, the cells were seeded at 12,000 cells/well in 384-well matrigel-coated plates and cultured for 18-24 hrs at 37° C. for the potentiator assay. For the correction assays, the cells are cultured at 37° C. with and without compounds for 18-24 hours.

T1 sequence (P13569 with tags, fused parts or gaps DEL508-508): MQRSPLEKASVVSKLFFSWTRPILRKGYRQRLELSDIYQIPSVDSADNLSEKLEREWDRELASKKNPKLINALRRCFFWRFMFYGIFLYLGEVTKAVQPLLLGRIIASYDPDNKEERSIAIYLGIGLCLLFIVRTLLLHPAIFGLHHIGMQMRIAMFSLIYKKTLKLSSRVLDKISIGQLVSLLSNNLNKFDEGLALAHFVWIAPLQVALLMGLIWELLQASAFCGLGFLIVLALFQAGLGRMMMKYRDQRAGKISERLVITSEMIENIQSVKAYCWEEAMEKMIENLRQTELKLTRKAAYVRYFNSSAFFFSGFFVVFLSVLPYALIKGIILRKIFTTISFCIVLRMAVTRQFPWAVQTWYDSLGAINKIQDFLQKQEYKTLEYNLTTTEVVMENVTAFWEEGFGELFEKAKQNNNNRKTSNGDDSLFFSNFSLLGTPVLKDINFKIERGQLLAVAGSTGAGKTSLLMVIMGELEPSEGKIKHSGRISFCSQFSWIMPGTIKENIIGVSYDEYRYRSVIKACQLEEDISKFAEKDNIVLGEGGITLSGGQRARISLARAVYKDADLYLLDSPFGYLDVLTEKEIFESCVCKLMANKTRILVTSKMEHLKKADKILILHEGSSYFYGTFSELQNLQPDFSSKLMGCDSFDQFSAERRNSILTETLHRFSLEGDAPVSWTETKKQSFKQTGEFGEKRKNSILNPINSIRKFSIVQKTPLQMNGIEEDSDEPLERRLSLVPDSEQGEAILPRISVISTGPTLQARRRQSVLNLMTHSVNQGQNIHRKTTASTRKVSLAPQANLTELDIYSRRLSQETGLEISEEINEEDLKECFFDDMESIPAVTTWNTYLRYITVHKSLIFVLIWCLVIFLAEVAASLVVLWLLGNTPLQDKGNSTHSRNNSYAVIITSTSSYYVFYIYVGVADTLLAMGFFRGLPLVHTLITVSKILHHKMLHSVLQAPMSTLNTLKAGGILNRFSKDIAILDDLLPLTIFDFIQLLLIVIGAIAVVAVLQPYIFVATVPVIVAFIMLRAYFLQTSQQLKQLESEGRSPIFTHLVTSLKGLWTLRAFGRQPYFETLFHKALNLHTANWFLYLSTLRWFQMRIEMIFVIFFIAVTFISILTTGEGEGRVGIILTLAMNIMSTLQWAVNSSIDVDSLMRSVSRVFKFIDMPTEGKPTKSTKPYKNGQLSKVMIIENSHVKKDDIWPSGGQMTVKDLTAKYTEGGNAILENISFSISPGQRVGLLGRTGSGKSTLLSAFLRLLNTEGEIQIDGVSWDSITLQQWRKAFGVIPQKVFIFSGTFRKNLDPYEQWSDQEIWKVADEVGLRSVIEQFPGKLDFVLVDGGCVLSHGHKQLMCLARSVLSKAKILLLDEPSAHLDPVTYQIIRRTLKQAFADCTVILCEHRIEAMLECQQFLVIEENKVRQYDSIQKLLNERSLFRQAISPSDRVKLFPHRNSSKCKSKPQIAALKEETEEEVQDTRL

## CC(C)(C)c1cc(C(C)(C)C)c(NC(=O)c2c[nH]c3ccccc3c2=O)cc1O [Compound III, N-(5-hydroxy-2,4-di-tert-butyl-phenyl)-4-oxo-1H-quinoline-3-carboxamide, reference compound]
F508del-CFTR [1]; HBE cells
  potentiation of F508del-CFTR delivered to the cell surface by Compound I alone or in combination with Compound II: potentiated

## C[C@@H]1CN(c2nc(-n3ccc(OCCC4(C(F)(F)F)CC4)n3)ccc2C(=O)NS(=O)(=O)c2ccccc2)C(C)(C)C1 [Compound I, N-(benzenesulfonyl)-6-[3-[2-[1-(trifluoromethyl)cyclopropyl]ethoxy]pyrazol-1-yl]-2-[(4S)-2,2,4-trimethylpyrrolidin-1-yl]pyridine-3-carboxamide]
F508del-CFTR [2]; F508del/F508del-HBE cells, 16 to 24 hours, 1 μM Compound I alone
  increase in steady-state levels, fold of untreated levels: 6.5 fold
F508del-CFTR [2]; in vitro
  processing and trafficking of F508del-CFTR: improved the processing and trafficking of F508del-CFTR; also recorded: facilitates the processing and trafficking of F508del-CFTR
pKa determination
  pKa: 4.95 ± 0.06
F508del-CFTR [3]; CFTR Activity, Table 120, read-out: CFTRdF508 EC50
  EC50: < 100 nM
F508del-CFTR [3]; F508del NIH 3T3 cells, membrane potential HTS assay, read-out: EC50
  EC50: < 3000 nM
F508del-CFTR [3]; NIH3T3, F508del NIH 3T3 cells, relative to Compound II, read-out: % Efficacy relative to Compound II
  Emax: ≥ 100%
F508del-CFTR [1]; F508del/F508del-HBE cells
  chloride transport: enhanced chloride transport
  effect on chloride transport together with Compound II: additive to the effect of Compound II

— patent US10654829B2, “Crystalline forms and compositions of CFTR modulators” (Vertex Pharmaceuticals Incorporated, priority 2017, dated 2020)
